# Reference: US10597388B2, “Pyridazinone herbicides” (FMC CORPORATION, priority 2014, dated 2020)
# What was measured:
# Type in all cases: in vivo
# [1] = tested on: crabgrass, large (large crabgrass, Digitaria sanguinalis); test: Test C greenhouse herbicide test, pre- and postemergence
# How it was run: (§1)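 Visual ratings on a 0 to 100 scale (0 = no effect, 100 = complete control) versus untreated controls, scored 13–15 d after treatment. Soil-applied preemergence to seeded loam/sand; foliar postemergence to 1- to 4-leaf plants (2–18 cm) in peat-vermiculite mix; compounds formulated in solvent plus surfactant.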
# [2] = tested on: blackgrass (Alopecurus myosuroides); test: as above
# How it was run: as §1
# [3] = tested on: foxtail, giant (giant foxtail, Setaria faberii); test: as above
# How it was run: as §1
# [4] = tested on: waterhemp (common waterhemp, Amaranthus rudis); test: as above
# How it was run: as §1
# [5] = tested on: corn (Zea mays); test: as above
# How it was run: as §1
# [6] = tested on: soybean (Glycine max); test: as above
# How it was run: as §1
# [7] = tested on: morningglory (Ipomoea coccinea); test: as above
# How it was run: as §1
# [8] = tested on: pigweed (Amaranthus retroflexus); test: as above
# How it was run: as §1
# [9] = tested on: velvetleaf (Abutilon theophrasti); test: as above
# How it was run: as §1
# [10] = tested on: ryegrass, Italian (Italian ryegrass, Lolium multiflorum); test: as above
# How it was run: as §1
# [11] = tested on: ragweed (common ragweed, Ambrosia elatior); test: as above
# How it was run: as §1
# [12] = tested on: oilseed rape (Brassica napus); test: as above
# How it was run: as §1
# [13] = tested on: lambsquarters (Chenopodium album); test: as above
# How it was run: as §1
# [14] = tested on: johnsongrass (Sorghum halepense); test: as above
# How it was run: as §1
# [15] = tested on: kochia (Kochia scoparia); test: Test C greenhouse herbicide test, postemergence; conditions: for Plant response rating, Kochia: Postemergence
# How it was run: (§2)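 Greenhouse postemergence spray on plants 2–18 cm tall; response judged visually after 13–15 d relative to untreated controls using a 0 (none) to 100 (full control) scale.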
# [16] = tested on: oat, wild (wild oat, Avena fatua); test: Test C greenhouse herbicide test, postemergence; conditions: for Plant response rating, Oat, Wild: Postemergence
# How it was run: as §2
# [17] = Postemergence, 125 g ai/ha, scale 0 to 100, 0 is no effect, 100 is complete control
# [18] = Postemergence, 250 g ai/ha, scale 0 to 100, 0 no effect, 100 complete control, 13 to 15 d
# [19] = Preemergence, 31 g ai/ha, scale 0 to 100, 0 is no effect, 100 is complete control
# [20] = Preemergence, 62 g ai/ha, scale 0 to 100, 0 is no effect, 100 is complete control
# [21] = Preemergence, 125 g ai/ha, scale 0 to 100, 0 is no effect, 100 is complete control
# [22] = Preemergence, 250 g ai/ha, scale 0 to 100 (0 no effect, 100 complete control)
# [23] = postemergence, 62 g ai/ha, scale 0 to 100, 0 no effect, 100 complete control
# [24] = Postemergence, 31 g ai/ha, 0 to 100 scale (0 no effect, 100 complete control)
# [25] = 125 g ai/ha, scale 0 to 100, 0 is no effect, 100 is complete control
# [26] = 250 g ai/ha, scale 0 to 100, 0 no effect, 100 complete control, 13 to 15 d
compound,measurement,setting,value
Cc1cc(C)c2sc(C)c(-c3c(OC(=O)OCCCl)c(C)nn(C)c3=O)c2c1 [Compound 85],"Plant response rating, Crabgrass, Large",[1]; [17],40
same,"Plant response rating, Crabgrass, Large",[1]; [18],45
same,"Plant response rating, Crabgrass, Large",[1]; [19],80
same,"Plant response rating, Crabgrass, Large",[1]; [20],85
same,"Plant response rating, Crabgrass, Large",[1]; [21],80
same,"Crabgrass, Large plant response rating",[1]; [22],85
same,"Crabgrass, Large plant response rating",[1]; [23],30
same,Blackgrass plant response rating,[2]; [24],70
same,"Plant response rating, Blackgrass",[2]; [17],90
same,"Plant response rating, Blackgrass",[2]; [18],90
same,"Plant response rating, Blackgrass",[2]; [19],50
same,"Plant response rating, Blackgrass",[2]; [20],85
same,"Plant response rating, Blackgrass",[2]; [21],90
same,Blackgrass plant response rating,[2]; [22],90
same,Blackgrass plant response rating,[2]; [23],80
same,"Plant response rating, Foxtail, Giant",[3]; [17],90
same,"Plant response rating, Foxtail, Giant",[3]; [18],90
same,"Plant response rating, Foxtail, Giant",[3]; [19],90
same,"Plant response rating, Foxtail, Giant",[3]; [20],98
same,"Plant response rating, Foxtail, Giant",[3]; [21],100
same,"Foxtail, Giant plant response rating",[3]; [22],100
same,"Foxtail, Giant plant response rating",[3]; [23],85
same,"Plant response rating, Waterhemp",[4]; [17],85
same,"Plant response rating, Waterhemp",[4]; [18],85
same,"Plant response rating, Waterhemp",[4]; [19],60
same,"Plant response rating, Waterhemp",[4]; [20],80
same,"Plant response rating, Waterhemp",[4]; [21],90
same,Waterhemp plant response rating,[4]; [22],100
same,Waterhemp plant response rating,[4]; [23],65
same,Corn plant response rating,[5]; [24],0
same,"Plant response rating, Corn",[5]; [17],0
same,"Plant response rating, Corn",[5]; [18],5
same,"Plant response rating, Corn",[5]; [19],0
same,"Plant response rating, Corn",[5]; [20],10
same,"Plant response rating, Corn",[5]; [21],0
same,Corn plant response rating,[5]; [22],10
same,Corn plant response rating,[5]; [23],0
same,"Plant response rating, Soybean",[6]; [17],0
same,"Plant response rating, Soybean",[6]; [18],15
same,"Plant response rating, Soybean",[6]; [19],0
same,"Plant response rating, Soybean",[6]; [20],0
same,"Plant response rating, Soybean",[6]; [21],0
same,Soybean plant response rating,[6]; [22],0
same,Soybean plant response rating,[6]; [23],0
same,"Plant response rating, Morningglory",[7]; [17],100
same,"Plant response rating, Morningglory",[7]; [18],100
same,"Plant response rating, Morningglory",[7]; [19],85
same,"Plant response rating, Morningglory",[7]; [20],90
same,"Plant response rating, Morningglory",[7]; [21],95
same,Morningglory plant response rating,[7]; [22],98
same,Morningglory plant response rating,[7]; [23],98
same,"Plant response rating, Pigweed",[8]; [17],85
same,"Plant response rating, Pigweed",[8]; [18],90
same,"Plant response rating, Pigweed",[8]; [19],100
same,"Plant response rating, Pigweed",[8]; [20],100
same,"Plant response rating, Pigweed",[8]; [21],100
same,Pigweed plant response rating,[8]; [22],100
same,Pigweed plant response rating,[8]; [23],85
same,"Plant response rating, Velvetleaf",[9]; [17],85
same,"Plant response rating, Velvetleaf",[9]; [18],95
same,"Plant response rating, Velvetleaf",[9]; [19],50
same,"Plant response rating, Velvetleaf",[9]; [20],80
same,"Plant response rating, Velvetleaf",[9]; [21],85
same,Velvetleaf plant response rating,[9]; [22],90
same,Velvetleaf plant response rating,[9]; [23],85
same,"Plant response rating, Ryegrass, Italian",[10]; [17],90
same,"Plant response rating, Ryegrass, Italian",[10]; [18],95
same,"Plant response rating, Ryegrass, Italian",[10]; [19],85
same,"Plant response rating, Ryegrass, Italian",[10]; [20],85
same,"Plant response rating, Ryegrass, Italian",[10]; [21],90
same,"Ryegrass, Italian plant response rating",[10]; [22],90
same,"Ryegrass, Italian plant response rating",[10]; [23],90
same,"Plant response rating, Ragweed",[11]; [17],85
same,"Plant response rating, Ragweed",[11]; [18],90
same,"Plant response rating, Ragweed",[11]; [19],80
same,"Plant response rating, Ragweed",[11]; [20],90
same,"Plant response rating, Ragweed",[11]; [21],98
same,Ragweed plant response rating,[11]; [22],98
same,Ragweed plant response rating,[11]; [23],85
same,"Plant response rating, Oilseed Rape",[12]; [17],10
same,"Plant response rating, Oilseed Rape",[12]; [18],15
same,"Plant response rating, Oilseed Rape",[12]; [19],5
same,"Plant response rating, Oilseed Rape",[12]; [20],85
same,"Plant response rating, Oilseed Rape",[12]; [21],40
same,Oilseed Rape plant response rating,[12]; [22],90
same,Oilseed Rape plant response rating,[12]; [23],10
same,"Plant response rating, Lambsquarters",[13]; [17],100
same,"Plant response rating, Lambsquarters",[13]; [18],100
same,"Plant response rating, Lambsquarters",[13]; [19],85
same,"Plant response rating, Lambsquarters",[13]; [20],90
same,"Plant response rating, Lambsquarters",[13]; [21],90
same,Lambsquarters plant response rating,[13]; [22],100
same,Lambsquarters plant response rating,[13]; [23],98
same,"Plant response rating, Johnsongrass",[14]; [17],50
same,"Plant response rating, Johnsongrass",[14]; [18],25
same,"Plant response rating, Johnsongrass",[14]; [19],40
same,"Plant response rating, Johnsongrass",[14]; [20],30
same,"Plant response rating, Johnsongrass",[14]; [21],65
same,Johnsongrass plant response rating,[14]; [22],40
same,Johnsongrass plant response rating,[14]; [23],15
same,"Plant response rating, Kochia",[15]; [25],60
same,"Plant response rating, Kochia",[15]; [26],70
same,Kochia plant response rating,[15]; [23],70
same,"Plant response rating, Oat, Wild",[16]; [25],95
same,"Plant response rating, Oat, Wild",[16]; [26],90
same,"Oat, Wild plant response rating",[16]; [23],90
